Test results published in patent US10945978B2, “Treatment and diagnosis of melanoma” (The Rockefeller University, priority 2012, dated 2021).
Structures can show the parent of a compound that is named as a salt.

Tests used:
[1] = tested on: MeWo, MeWo-LM2, HT-144, SK-Mel-2 and SK-Mel-334.2 human melanoma cells; assay: Trans-well matrigel cell invasion assay, melanoma cells; type: cell-based; settings: for ability of melanoma cells to invade through matrigel: MeWo, HT-144, SK-Mel-2, SK-Mel-334.2, 1 μM for 72 hours
Description: Cancer cells were serum-starved in 0.2% FBS DMEM-based media for 12 hours. Trans-well invasion chambers (354480, BD Biosciences, Bedford, Mass.) were pre-equilibrated prior to beginning the assay by adding 0.5 mL of starvation media to the top and bottom chambers. After 30 minutes, the media in the top chamber was removed, and 0.5 mL of media containing 1×10^5 cancer cells was added into each matrigel-coated trans-well insert and incubated at 37° C. for 24 hours. For neutralization antibody and/or recombinant protein experiments, antibody/recombinant protein was added to each well at the start of the assay at the following concentrations as indicated in the figures: 5-40 μg/mL anti-ApoE 1D7 (Heart Institute, University of Ottawa), 5-40 μg/mL anti-IgG (AB-108-C, R&D Systems, Minneapolis, Minn.), 100 μM recombinant human ApoE3 (4696, BioVision, Mountain View, Calif.), and 100 μM BSA (A2153, Sigma-Aldrich). Upon completion of the assay, matrigel-coated inserts were washed with PBS, the cells at the top side of each insert were scraped off, and the inserts were fixed in 4% paraformaldehyde for 15 minutes. The inserts were then cut out and mounted onto slides using VectaShield mounting medium containing DAPI (H-1000, Vector Laboratories, Burlingame, Calif.). The basal side of each insert was imaged using an inverted fluorescence microscope (Zeiss Axiovert 40 CFL) at 5× magnification, taking three representative images for each insert. The number of invaded cells was quantified using ImageJ (NIH).
The cell invasion assay was performed as previously described in detail (Pencheva et al., 2012) using a trans-well matrigel invasion chamber system (354480, BD Biosciences). In brief, various melanoma cells were cultured in the presence of DMSO, GW3965, T0901317, or Bexarotene at 1 μM for 56 hours, after which melanoma cells were switched to starvation media (0.2% FBS) for 16 hours in the presence of each drug. Following starvation, cells were seeded into matrigel-coated trans-well inserts, and the invasion assay was allowed to proceed for 24 hours at 37° C. For ApoE antibody neutralization experiments, 40 μg/mL 1D7 anti-ApoE blocking antibody (Heart Institute, University of Ottawa, Ottawa, Canada) or 40 t g/mL anti-IgG control antibody (AB-108-C, R&D Systems, Minneapolis, Minn.) was added to each trans-well insert at the start of the assay.
The cells were then serum starved for 16 hours in 0.2% FBS media in the presence of each corresponding drug or DMSO. Following serum starvation, the cells were subjected to the trans-well invasion assay using a matrigel invasion chamber system (354480, BD Biosciences). Invasion chambers were pre-equilibrated prior to the assay by adding 0.5 mL of starvation media to the top and bottom wells. Meanwhile, cancer cells were trypsinized and viable cells were counted using trypan blue. Cancer cells were then resuspended at a concentration of 2×10^5 cells/1 mL starvation media, and 0.5 mL of cell suspension, containing 1×10^5 cells, was seeded into each trans-well. The invasion assay was allowed to proceed for 24 hours at 37° C. […] Following fixation, the inserts were washed in PBS, cut out, and mounted onto slides using VectaShield mounting medium containing DAPI nuclear stain (H-1000, Vector Laboratories). The basal side of each insert was imaged using an inverted fluorescence microscope (Zeiss Axiovert 40 CFL) at 5× magnification, and the number of DAPI-positive cells was quantified using ImageJ.

[2] = tested on: melanoma cells (MeWo, MeWo-LM2, HT-144, SK-Mel-334.2) and endothelial cells; assay: In vitro cell proliferation, viability and serum starvation assays; type: cell-based, human; parameters: melanoma cell or endothelial cell in vitro proliferation: dose or concentration left out as unconfirmed; settings: for cell proliferation or cell viability rates: MeWo, HT-144, SK-Mel-334.2, 1 μM, 5 days
Description: To determine the effects of miR-199a or miR-1908 over-expression and combinatorial LNA-induced miRNA inhibition on cell proliferation, 2.5×10^4 cells were seeded in triplicate in 6-well plates, and viable cells were counted after 5 days. […] Viable cells were counted after 8, 24, 48, 72, and 120 hours.
The number of viable cells was counter after 8, 16, and 24 hours.
To determine the effects of GW3965, T0901317, and Bexarotene on in vitro cell growth, 2.5×10^4 melanoma cells were seeded in triplicate in 6-well plates and cultured in the presence of DMSO, GW3965, T0901317, or Bexarotene at 1 μM each. After 5 days, the number of viable and dead cells was counted using the trypan blue dye (72-57-1, Sigma-Aldrich), which selectively labels dead cells.

Molecule: O=C(O)Cc1cccc(OCCCN(Cc2cccc(C(F)(F)F)c2Cl)CC(c2ccccc2)c2ccccc2)c1 [GW3965 2, 3-[3-[N-(2-Chloro-3-trifluoromethylbenzyl)-(2,2-diphenylethyl)amino]propyloxy] phenylacetic acid hydrochloride]
- tumor cell invasion ([1]; MeWo cells pre-treated 48 hours): decreased
- ability of melanoma cells to invade through matrigel [1]: consistently suppressed
- cell proliferation or cell viability rates [2]: did not affect

Molecule: O=S(=O)(c1ccccc1)N(CC(F)(F)F)c1ccc(C(O)(C(F)(F)F)C(F)(F)F)cc1 [T0901317 1]
- ability of melanoma cells to invade through matrigel [1]: consistently suppressed
- cell proliferation or cell viability rates [2]: did not affect

Molecule: recombinant human ApoE: recombinant human ApoE3 (4696, BioVision)
- invasion ([1]; metastatic LM2 cells, recombinant ApoE3 100 μM vs BSA): significantly suppressed
- melanoma cell or endothelial cell in vitro proliferation ([2]; MeWo-LM2 cells or endothelial cells, ApoE): did not affect
- survival in serum starvation conditions ([2]; MeWo-LM2 cells or endothelial cells, ApoE, 0.2% FBS): did not affect
